Measurements reported in patent US20260130932A1, “NOVEL COMBINATION OF RIFAXIMIN AND CLARITHROMYCIN FOR TREATING MULTIDRUG-RESISTANT MYCOBACTERIUM ABSCESSUS” (priority 2022, published 2026).
Values joined by “and” are separate entries in the source; they are usually repeats but may differ in a detail not shown here. Equal values may be shown once. Where a name gives a salt, the structure may show the parent alone.

Tests used:
[1] = system: M. abscessus strain M422; assay: Single-concentration assay with and without clarithromycin (hit validation); format: cell-based, Mycobacterium abscessus; conditions: for % inhibition with 0.5 μg/ml Clr: compound combined with clarithromycin; for % inhibition with compound alone: without clarithromycin
Procedure: (§1) For checkerboard synergy assay, 3 M. abscessus strains were used: M. abscessus ATCC 19977, M. abscessus strains M422 and M110, while bactericidal activity determination and the zebrafish study were performed with M. abscessus ATCC 19977. All three strains of M. abscessus harbor the inducible clarithromycin resistance-conferring erm(41) T28 sequevar. M. abscessus strain M422 and M110 were provided by Dr. Jeanette Teo, National University Hospital, Singapore (Chew K L, et al., 2017. J Med Microbiol 66: 1443-1447). M. abscessus ATCC 19977 and M. avium ATCC 700898 were acquired from American Type Culture Collection (ATCC).
Primary screening was carried out in 96-well flat-bottom Corning Costar cell culture plates at 50 μM compound along with 4 μg/ml of Clr in a starting inoculum of pre-induced M. abscessus cells at OD600 of 0.005 in a final volume of 100 μl. The plates were put in an airtight container with moist paper towels and incubated for 4 d at 30° C. The cultures in the wells were resuspended before OD600 was read in a BioTek Synergy 4 plate reader.
To start the validation process, the top 10 compounds with >90% growth inhibition were chose to perform a single-concentration assay, with and without clarithromycin. Finally, the inventors obtained 7 compounds that potentiated Clr efficacy.

[2] = system: M. avium ATCC 700898 (uninduced); assay: Checkerboard synergy assay; format: cell-based, Mycobacterium avium; conditions: Mycobacterium avium, ATCC700898; read-out: MIC90
Procedure: (§2) With Rfx identified as the best potentiator of Clr activity, the interaction between Rfx and Clr was investigated by a checkerboard synergy approach using a broth microdilution method performed in 96-well plates. To provide a classification of the combined antibiotics based on the fractional inhibitory concentration index (FICI), this assay applied the combination of Clr and Rfx in concentrations of 0-64 μg/ml by 2-fold serial dilutions along the abscissa and ordinate, respectively. The FICI was calculated by summing the FIC of Rfx and the FIC of Clr. FIC of Clr is the MIC of Clr in the presence of Rfx divided by MIC of Clr alone. FIC of Rfx was similarly calculated.
As both M. abscessus and M. avium are the main organism groups causing pulmonary NTM (Lim A Y H, et al., 2018. BMC Pulm Med 18 (1):85; Tan Y, et al., 2018. BMC Pulm Med 18 (1): 168), the inventors tested the combination of Clr and Rfx against M. avium in the checkerboard assay as well. With a FICI of 0.563, the interaction between Clr and Rfx was additive in M. avium.

[3] = system: M. abscessus ATCC 19977, M. abscessus strains M422 and M110; assay: Checkerboard synergy assay, statements on all 3 M. abscessus strains; format: cell-based, Mycobacterium abscessus; conditions: pre-induced M. abscessus strains (FIG. 4, Table 2)
Procedure: as §1, §2
(§3) To characterize the interaction between Clr and Rfx, checkerboard synergy assays were performed on pre-induced Clr-resistant M. abscessus. The fractional inhibitory concentration index (FICI) obtained from the checkerboard assay defines whether the interaction between the two compounds is either synergistic (FICI≤0.5), additive (0.5<FICI≤1.0), indifferent (1.0<FICI≤4.0), or antagonistic (FICI >4.0) (Noel D J, Keevil C W, Wilks S A. 2021. MBio 12).

[4] = system: M. abscessus ATCC 19977 (pre-induced); assay: microbe, parasite or virus in culture; format: cell-based, Mycobacterium abscessus
Procedure: The FICI was calculated by summing the FIC of Rfx and the FIC of Clr. FIC of Clr is the MIC of Clr in the presence of Rfx divided by MIC of Clr alone. FIC of Rfx was similarly calculated.
as §3

[5] = system: M. abscessus ATCC 19977; assay: Zebrafish embryo infection model; format: in vivo, zebrafish (Denio rerio); conditions: Clr alone up to 74.8 μg/ml (100 μM), immersion for 4 days (FIG. 6A)
Excerpt: To visualize the bacterial infection in the zebrafish (Denio rerio), a fluorescent strain of M. abscessus ATCC 19977 containing pJKD2893:mScarlet was generated. The pJKD2893 plasmid backbone was a kind gift from Professor Timothy Stinear. The gene expressing the fluorescent protein mScarlet was amplified from μMRE135-mScarlet (Addgene #118489, Mitja Remus-Emsermann lab). The amplification product was annealed by Gibson cloning with the pJKD2893 backbone amplified from a sample of pJKD2893. The resulting plasmid, termed pJKD2893:mScarlet, was electroporated into M. abscessus ATCC 19977 at a culture density equivalent to OD600˜20 using a BioRad GenePulser Xcell set at 2.5 kV, 25 uF, and 1,000Ω. […] Colonies carrying the plasmid were identified by their fluorescence. […]
Preparation of M. abscessus Inoculum and Zebrafish Infections Cultures of M. abscessus-pJKD2893:mScarlet in 7H9 media supplemented with 50 μg/ml kanamycin were grown to OD600 of 0.2-0.3 and concentrated to OD600 of 1 in 0.1% PBS-Tween-20. […] The actual CFU in the inoculum was determined a posteriori by injecting into 50 μl 0.1% PBS-Tween-20 and streaking on a plate. […]
Larvae were harvested to assess the bacterial load at 5 d post-infection using a slightly modified version of the Kremer lab method (Bernut et al., Antimicrob Agents Chemother 58: 4054-4063). […] Fluorescent colonies were counted after 5-6 days. […]

[6] = clarithromycin 0 μg/ml, partner antibiotic 1 μg/ml
[7] = clarithromycin 0 μg/ml, partner antibiotic 2 μg/ml
[8] = clarithromycin 0 μg/ml, partner antibiotic 4 μg/ml
[9] = clarithromycin 0 μg/ml, partner antibiotic 8 μg/ml
[10] = clarithromycin 0 μg/ml, partner antibiotic 16 μg/ml
[11] = clarithromycin 0 μg/ml, partner antibiotic 32 μg/ml
[12] = clarithromycin 0 μg/ml, partner antibiotic 64 μg/ml

Compound | % inhibition with 0.5 μg/ml Clr [1] | % inhibition with compound alone [1] | Percentage of bacterial growth [4, 6] | Percentage of bacterial growth [4, 7] | Percentage of bacterial growth [4, 8] | Percentage of bacterial growth [4, 9] | Percentage of bacterial growth [4, 10] | Percentage of bacterial growth [4, 11] | Percentage of bacterial growth [4, 12] | also measured
OB1OCc2cc(F)ccc21 [AN-2690] | 96.7% | 80.4% | – | – | – | – | – | – | – | –
CC(=O)OC[C@H]1O[C@@H]([S-])[C@H](OC(C)=O)[C@@H](OC(C)=O)[C@@H]1OC(C)=O.CCP(CC)CC.[Au+] [Auranofin] | 98.5% | 86.9% | – | – | – | – | – | – | – | –
CO/N=C(\C(=O)N[C@@H]1C(=O)N2C(C(=O)O)=C(COC(C)=O)CS[C@H]12)c1csc(N)n1 [Cefotaxime (sodium salt), Cefotaxime] | 98.5% | 86.7% | – | – | – | – | – | – | – | –
CC[C@H]1OC(=O)[C@H](C)[C@@H](O[C@H]2C[C@@](C)(OC)[C@@H](O)[C@H](C)O2)[C@H](C)[C@@H](O[C@@H]2O[C@H](C)C[C@H](N(C)C)[C@H]2O)[C@](C)(OC)C[C@@H](C)C(=O)[C@H](C)[C@@H](O)[C@]1(C)O [Clarithromycin, clarithromycin] | – | – | – | – | – | – | – | – | – | MIC90 [2]: < 0.1 µg/mL; reduction of the MIC of Clr when used in combination with Rfx [3]: at least 16 fold; Percentage of bacterial growth ([4]; clarithromycin 1 μg/ml, partner antibiotic 0 μg/ml): 80.1% and 116.9% and 119.5% and 108.3% and 97.8% and 90.2% and 95.5%; Percentage of bacterial growth ([4]; clarithromycin 2 μg/ml, partner antibiotic 0 μg/ml): 80.6% and 99.5% and 102.2% and 98.9% and 80.2% and 84.8% and 96.8%; Percentage of bacterial growth ([4]; clarithromycin 4 μg/ml, partner antibiotic 0 μg/ml): 86.2% and 113.2% and 103.4% and 117.2% and 82.7% and 78.4% and 93.3%; Percentage of bacterial growth ([4]; clarithromycin 8 μg/ml, partner antibiotic 0 μg/ml): 76.2% and 102.8% and 93.2% and 108.1% and 71.4% and 97.4% and 92.9%; Percentage of bacterial growth ([4]; clarithromycin 16 μg/ml, partner antibiotic 0 μg/ml): 64.0% and 109.5% and 86.1% and 101.8% and 72.3% and 89.6% and 89.7%; Percentage of bacterial growth ([4]; clarithromycin 32 μg/ml, partner antibiotic 0 μg/ml): 77.4% and 84.3% and 83.8% and 115.7% and 59.0% and 98.2% and 95.4%; effect on bacterial load [5]: unable to reduce bacterial load
CO[C@@H]1[C@@H](OC(N)=O)[C@@H](O)[C@H](Oc2ccc3c(O)c(NC(=O)c4ccc(O)c(CC=C(C)C)c4)c(=O)oc3c2C)OC1(C)C [Novobiocin (Sodium), Novobiocin] | 99.7% | 84.1% | – | – | – | – | – | – | – | –
CC(=O)NC[C@H]1CN(c2ccc(N3CCSCC3)c(F)c2)C(=O)O1 [Sutezolid] | 92.8% | 80.4% | – | – | – | – | – | – | – | –
Cn1nnc(-c2ccc(-c3ccc(N4C[C@H](CO)OC4=O)cc3F)cn2)n1 [Tedizolid] | 99.1% | 85.2% | – | – | – | – | – | – | – | –
C[C@@H](O)[C@H]1C(=O)N2C(C(=O)O)=C(SCCN=CN)C[C@H]12 [imipenem] | – | – | 86.9% | 93.4% | 58.5% | 78.5% | 62.1% | 38.3% | 16.6% | –
COc1c(N2C[C@@H]3CCCN[C@@H]3C2)c(F)cc2c(=O)c(C(=O)O)cn(C3CC3)c12 [moxifloxacin] | – | – | 107.8% | 122.8% | 86.4% | 51.2% | 13.4% | 7.4% | 0.6% | –
CN(C)c1cc(NC(=O)CNC(C)(C)C)c(O)c2c1C[C@H]1C[C@H]3[C@H](N(C)C)C(O)=C(C(N)=O)C(=O)[C@@]3(O)C(O)=C1C2=O [tigecycline] | – | – | 64.2% | 74.2% | 77.8% | 67.0% | 39.3% | 22.4% | 10.1% | concentration at which synergistic effects with clarithromycin are exhibited ([4]; Table 3): ≥ 16 µg/mL; FICI ([4]; clarithromycin with a known partner antibiotic, each 0-64 μg/ml): 0.25
CN[C@H](CC(C)C)C(=O)N[C@H]1C(=O)N[C@@H](CC(N)=O)C(=O)N[C@H]2C(=O)N[C@H]3C(=O)N[C@H](C(=O)N[C@H](C(=O)O)c4cc(O)cc(O)c4-c4cc3ccc4O)[C@H](O)c3ccc(c(Cl)c3)Oc3cc2cc(c3O[C@@H]2O[C@H](CO)[C@@H](O)[C@H](O)[C@H]2O[C@H]2C[C@](C)(N)[C@H](O)[C@H](C)O2)Oc2ccc(cc2Cl)[C@H]1O [vancomycin] | – | – | 103.7% | 102.0% | 105.7% | 91.7% | 90.8% | 86.6% | 83.1% | –
oritavancin diphosphate | – | – | 68.0% | 59.1% | 51.1% | 46.8% | 40.9% | 32.2% | 26.1% | –
